In US7964633B2, “Sulfonamide derivatives” (Hoffmann-La Roche Inc., priority 2006, dated 2011):

How the values were obtained:
[1] = target: T1, human liver FBPase (Homo sapiens, UniProt P09467); assay: FBPase assay (malachite green phosphate release); type: biochemical; settings: recombinant human liver FBPase, 50 μM fructose-1,6-bisphosphate, pH 7.2, 50 minutes at room temperature
T1 construct: host or cells: E. coli
T1 sequence (P09467 2-338 limits assumed): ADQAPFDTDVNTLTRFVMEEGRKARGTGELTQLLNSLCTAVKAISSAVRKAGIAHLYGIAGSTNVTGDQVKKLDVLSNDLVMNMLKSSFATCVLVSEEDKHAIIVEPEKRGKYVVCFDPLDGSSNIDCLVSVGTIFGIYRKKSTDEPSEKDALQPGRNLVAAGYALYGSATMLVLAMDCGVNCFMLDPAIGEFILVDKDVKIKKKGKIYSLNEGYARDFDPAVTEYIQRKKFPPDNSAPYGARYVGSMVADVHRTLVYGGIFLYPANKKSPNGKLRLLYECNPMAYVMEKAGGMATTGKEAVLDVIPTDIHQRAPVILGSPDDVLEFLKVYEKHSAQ
Method: The following tests were carried out for evaluating the inhibitory activity of the compounds of the present invention against human liver FBPase (Swissprot Data base reference PO9467, entry F16P_HUMAN).
Enzyme preparation: Human liver FBPase cDNA (NM_000507) was purchased from Origene Technologies, Inc, subcloned in a vector for expression in E. Coli., and sequenced. Recombinant human liver FBPase (hIFBPase) was purified according to the following protocol that uses heat denaturation similarly to that described by El-Maghrabi et. al. [El-Maghrabi, M. R. et al. “Isolation of a human liver fructose-1,6-bisphosphatase cDNA and expression of the protein in Escherichia coli.” J Biol Chem 268:9466-9472, 1993.]. […] Purity of the enzyme preparation was >90% as assessed by Mass spectrometry.
In vitro activity: Recombinant human liver FBPase (hIFBPase) activity was assayed through measuring the inorganic phosphate release that results from the hydrolysis of Fructose-1,6-bisphosphate by the enzyme. […] Anal. Biochem., 171:266-270, 1988], inorganic phosphate can be readily quantified by spectrophotometry at 620 nm after complexation with ammonium molybdate/malachite green reagent. […] Under these conditions, the assay was linear with time and able to detect FBPase inhibition after spectrophotometric read-out at 620 nm.

| melting point | IC50 [1] | Structure (SMILES) |
| --- | --- | --- |
| 165 to 167 °C |  | O=C(NCCSSCCNC(=O)NS(=O)(=O)c1cccc(Cl)c1)NS(=O)(=O)c1cccc(Cl)c1 [Example 3, N,N′-[dithiobis(ethane-2,1-diyliminocarbonyl)]bis(3-chlorobenzenesulfonamide)] |
|  | 22 nM | Cc1cccc(S(=O)(=O)NC(=O)NCCCCCCNC(=O)NS(=O)(=O)c2cccc(C)c2)c1 [Example 8, N,N′-[hexane-1,6-diylbis(iminocarbonyl)]bis(3-methylbenzenesulfonamide)] |
|  | 17 nM | O=C(NCCCCCCNC(=O)NS(=O)(=O)c1cccc(Cl)c1)NS(=O)(=O)c1cccc(Cl)c1 [Example 1] |
